The results in this text go back to the supplement of paper PMC10307832.

One test has as its system NCI-H1734. As to the kind of experiment: relative viability (nuclei count vs DMSO), 5 days (fraction); higher = more cells survive. The note with it: first compound 2.53 µM. A digest of the protocol:
(§1)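 Relative viability divides the nuclei count in treated wells by that in vehicle wells. Lung cancer cell lines were seeded in 1536-well plates, dosed by pin tool the next day, and fixed and stained after 5 days in one step with final 0.05% Triton X-100, 1% formaldehyde and 1 ug/ml Hoechst. Dosing was a single drug or a fixed anchor-drug dose plus five library-drug doses (not always all listed) in √10 steps, and values are medians of duplicate plates imaged at 4×.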
For `Nc1cccc2c1CN(C1CCC(=O)NC1=O)C2=O` (stereo not given) [Lenalidomide] + CCNC(=O)c1noc(-c2cc(C(C)C)c(O)cc2O)c1-c1ccc(CN2CCOCC2)cc1 [Luminespib] (partner 0.01 µM), the relative viability is 0.206.

Consider `Nc1cccc2c1CN(C1CCC(=O)NC1=O)C2=O` (stereo not given) [Lenalidomide] + Nc1ncn([C@H]2C[C@H](O)[C@@H](CO)O2)c(=O)n1 [Decitabine] (partner 2 µM), for which the relative viability came out at 0.568.

`Nc1cccc2c1CN(C1CCC(=O)NC1=O)C2=O` (stereo not given) [Lenalidomide] + Cc1nc(Nc2ncc(C(=O)Nc3c(C)cccc3Cl)s2)cc(N2CCN(CCO)CC2)n1 [Dasatinib] (partner 0.075 µM) registered a relative viability of 0.562.

Take `Nc1cccc2c1CN(C1CCC(=O)NC1=O)C2=O` (stereo not given) [Lenalidomide] + N=C(N)NC(=N)NCCc1ccccc1 [Phenformin] (partner 250 µM): the relative viability came out at 0.425.

With `Nc1cccc2c1CN(C1CCC(=O)NC1=O)C2=O` (stereo not given) [Lenalidomide] + CC(=O)c1c(C)c2cnc(Nc3ccc(N4CCNCC4)cn3)nc2n(C2CCCC2)c1=O [Palbociclib] (partner 0.5 µM), the relative viability was 0.364.

The same test, now with this note: first compound 8 µM.
On to `Nc1cccc2c1CN(C1CCC(=O)NC1=O)C2=O` (stereo not given) [Lenalidomide] + CCNC(=O)c1noc(-c2cc(C(C)C)c(O)cc2O)c1-c1ccc(CN2CCOCC2)cc1 [Luminespib] (partner 0.01 µM), for which the relative viability was 0.196.

Take `Nc1cccc2c1CN(C1CCC(=O)NC1=O)C2=O` (stereo not given) [Lenalidomide] + Nc1ncn([C@H]2C[C@H](O)[C@@H](CO)O2)c(=O)n1 [Decitabine] (partner 2 µM): the relative viability came to 0.485.

`Nc1cccc2c1CN(C1CCC(=O)NC1=O)C2=O` (stereo not given) [Lenalidomide] + Cc1nc(Nc2ncc(C(=O)Nc3c(C)cccc3Cl)s2)cc(N2CCN(CCO)CC2)n1 [Dasatinib] (partner 0.075 µM) showed a relative viability of 0.4.

As for `Nc1cccc2c1CN(C1CCC(=O)NC1=O)C2=O` (stereo not given) [Lenalidomide] + N=C(N)NC(=N)NCCc1ccccc1 [Phenformin] (partner 250 µM), the relative viability came to 0.34.

The molecule `Nc1cccc2c1CN(C1CCC(=O)NC1=O)C2=O` (stereo not given) [Lenalidomide] + CC(=O)c1c(C)c2cnc(Nc3ccc(N4CCNCC4)cn3)nc2n(C2CCCC2)c1=O [Palbociclib] (partner 0.5 µM) displayed a relative viability of 0.291.

For another test, the system named is ChaGo-K-1. The description is as above. The note with it: first compound 0.253 µM. The method, boiled down:
as §1
With `Nc1cccc2c1CN(C1CCC(=O)NC1=O)C2=O` (stereo not given) [Lenalidomide] + CCNC(=O)c1noc(-c2cc(C(C)C)c(O)cc2O)c1-c1ccc(CN2CCOCC2)cc1 [Luminespib] (partner 0.01 µM), the relative viability was 0.649.

For the molecule `Nc1cccc2c1CN(C1CCC(=O)NC1=O)C2=O` (stereo not given) [Lenalidomide] + Nc1ncn([C@H]2C[C@H](O)[C@@H](CO)O2)c(=O)n1 [Decitabine] (partner 2 µM), the relative viability was determined as 0.519.

`Nc1cccc2c1CN(C1CCC(=O)NC1=O)C2=O` (stereo not given) [Lenalidomide] + Cc1nc(Nc2ncc(C(=O)Nc3c(C)cccc3Cl)s2)cc(N2CCN(CCO)CC2)n1 [Dasatinib] (partner 0.075 µM) gave a relative viability of 0.565.

Take `Nc1cccc2c1CN(C1CCC(=O)NC1=O)C2=O` (stereo not given) [Lenalidomide] + N=C(N)NC(=N)NCCc1ccccc1 [Phenformin] (partner 250 µM): the relative viability came out at 0.497.

`Nc1cccc2c1CN(C1CCC(=O)NC1=O)C2=O` (stereo not given) [Lenalidomide] + CC(=O)c1c(C)c2cnc(Nc3ccc(N4CCNCC4)cn3)nc2n(C2CCCC2)c1=O [Palbociclib] (partner 0.5 µM) had a relative viability of 0.946.

The same test, now with this note: first compound 0.8 µM.
The molecule `Nc1cccc2c1CN(C1CCC(=O)NC1=O)C2=O` (stereo not given) [Lenalidomide] + CCNC(=O)c1noc(-c2cc(C(C)C)c(O)cc2O)c1-c1ccc(CN2CCOCC2)cc1 [Luminespib] (partner 0.01 µM) registered a relative viability of 0.506.

As to `Nc1cccc2c1CN(C1CCC(=O)NC1=O)C2=O` (stereo not given) [Lenalidomide] + Nc1ncn([C@H]2C[C@H](O)[C@@H](CO)O2)c(=O)n1 [Decitabine] (partner 2 µM), the relative viability is 0.551.

As to `Nc1cccc2c1CN(C1CCC(=O)NC1=O)C2=O` (stereo not given) [Lenalidomide] + Cc1nc(Nc2ncc(C(=O)Nc3c(C)cccc3Cl)s2)cc(N2CCN(CCO)CC2)n1 [Dasatinib] (partner 0.075 µM), the relative viability stood at 0.495.

Molecule `Nc1cccc2c1CN(C1CCC(=O)NC1=O)C2=O` (stereo not given) [Lenalidomide] + N=C(N)NC(=N)NCCc1ccccc1 [Phenformin] (partner 250 µM) yielded a relative viability of 0.459.

`Nc1cccc2c1CN(C1CCC(=O)NC1=O)C2=O` (stereo not given) [Lenalidomide] + CC(=O)c1c(C)c2cnc(Nc3ccc(N4CCNCC4)cn3)nc2n(C2CCCC2)c1=O [Palbociclib] (partner 0.5 µM) gave a relative viability of 0.978.

The test is the same for the next values; noted with them: first compound 2.53 µM.
In the case of `Nc1cccc2c1CN(C1CCC(=O)NC1=O)C2=O` (stereo not given) [Lenalidomide] + CCNC(=O)c1noc(-c2cc(C(C)C)c(O)cc2O)c1-c1ccc(CN2CCOCC2)cc1 [Luminespib] (partner 0.01 µM), the relative viability is 0.788.

Molecule `Nc1cccc2c1CN(C1CCC(=O)NC1=O)C2=O` (stereo not given) [Lenalidomide] + Nc1ncn([C@H]2C[C@H](O)[C@@H](CO)O2)c(=O)n1 [Decitabine] (partner 2 µM) showed a relative viability of 0.525.

The molecule `Nc1cccc2c1CN(C1CCC(=O)NC1=O)C2=O` (stereo not given) [Lenalidomide] + Cc1nc(Nc2ncc(C(=O)Nc3c(C)cccc3Cl)s2)cc(N2CCN(CCO)CC2)n1 [Dasatinib] (partner 0.075 µM) showed a relative viability of 0.677.

Turning to `Nc1cccc2c1CN(C1CCC(=O)NC1=O)C2=O` (stereo not given) [Lenalidomide] + N=C(N)NC(=N)NCCc1ccccc1 [Phenformin] (partner 250 µM), the relative viability was found to be 0.636.

Turning to `Nc1cccc2c1CN(C1CCC(=O)NC1=O)C2=O` (stereo not given) [Lenalidomide] + CC(=O)c1c(C)c2cnc(Nc3ccc(N4CCNCC4)cn3)nc2n(C2CCCC2)c1=O [Palbociclib] (partner 0.5 µM), the relative viability stood at 1.01.

Still in this test, the particulars now being: first compound 8 µM.
In turn, `Nc1cccc2c1CN(C1CCC(=O)NC1=O)C2=O` (stereo not given) [Lenalidomide] + CCNC(=O)c1noc(-c2cc(C(C)C)c(O)cc2O)c1-c1ccc(CN2CCOCC2)cc1 [Luminespib] (partner 0.01 µM) yielded a relative viability of 0.541.

Turning to `Nc1cccc2c1CN(C1CCC(=O)NC1=O)C2=O` (stereo not given) [Lenalidomide] + Nc1ncn([C@H]2C[C@H](O)[C@@H](CO)O2)c(=O)n1 [Decitabine] (partner 2 µM), the relative viability turned out to be 0.538.

Molecule `Nc1cccc2c1CN(C1CCC(=O)NC1=O)C2=O` (stereo not given) [Lenalidomide] + Cc1nc(Nc2ncc(C(=O)Nc3c(C)cccc3Cl)s2)cc(N2CCN(CCO)CC2)n1 [Dasatinib] (partner 0.075 µM) gave a relative viability of 0.595.

`Nc1cccc2c1CN(C1CCC(=O)NC1=O)C2=O` (stereo not given) [Lenalidomide] + N=C(N)NC(=N)NCCc1ccccc1 [Phenformin] (partner 250 µM) registered a relative viability of 0.478.

For `Nc1cccc2c1CN(C1CCC(=O)NC1=O)C2=O` (stereo not given) [Lenalidomide] + CC(=O)c1c(C)c2cnc(Nc3ccc(N4CCNCC4)cn3)nc2n(C2CCCC2)c1=O [Palbociclib] (partner 0.5 µM), the relative viability was 0.971.
